Results published in patent publication US20120076842A1, “COSMETIC USE OF TYR-ARG DIPEPTIDE TO COMBAT CUTANEOUS SAGGING” (SEDERMA, priority 2009, published 2012).

Tests used:
[1] = tested on: Elastin/Tropoelastin by normal human fibroblasts; test: Release of Elastin/Tropoelastin by normal human fibroblasts (ELISA sandwich method); type: cell-based; conditions: TGF-β1 10-6% (positive control); vs control (placebo); n = 5
Method: Normal human dermal fibroblasts (NHDF) were cultured to confluence. The cells were then exposed or not to preparations comprising the Tyr-Arg dipeptide at different concentrations. The culture supernatants were assayed to determine the quantity of Elastin/Tropoelastin using an ELISA sandwich method. TGF-β1 was used as the positive control.

[2] = tested on: elastin/tropoelastin, NHDF; test: Synthesis of elastin/tropoelastin by normal human fibroblasts (immunolabeling, image analysis); type: cell-based; conditions: TGF-β1, vs control
Method: Principle: normal human fibroblastes (NHDF) were cultured to confluence. The cells were then exposed or not to preparations containing Tyr-Arg peptide. The cellular layers are then marked with an antibody recognising specifically elastine.

Fibrillin-1 by NHDF = test: Synthesis of Fibrillin-1 by NHDF (immunolabeling method); type: cell-based, human; conditions: TGF-β1 10^−6%, vs control
Method: As indicated in the introduction, elastin formation is not sufficient. The presence of microfibril scaffolding is necessary. The induction of Fibrillin-1 synthesis was thus investigated.
NHDF were cultured to confluence. The cells were then exposed or not exposed to Tyr-Arg dipeptide at different concentrations for 18 days. The cell layers were then labeled with an antibody to specifically detect Fibrillin-1 by immunofluorescence.
Standardized photographs enabled imaging and quantification of Fibrillin-1 synthesis by image analysis (n=4).

[3] = tested on: Fibulin-5 synthesis by NHDF; test: Fibulin-5 synthesis by NHDF (Western Blot method); type: cell-based, human; conditions: 10^−6% TGF-β1
Method: NHDF were cultured to confluence. The cells were exposed or not exposed to preparations containing Tyr-Arg dipeptide. The cell layers were then lysed and analyzed using the Western Blot* method. Fibulin-5 synthesis was detected using a specific antibody. The resulting bands were quantified using appropriate image-analysis software. * Western Blot: the cell layers were blended in lysis buffer. The lysate was applied to a polyacrylamide gel for electrophoresis. After migration, the proteins were transferred to a nitrocellulose membrane and the proteins of interest detected using a specific antibody. Image analysis was used to quantify the two fibulin-5 bands obtained.

[4] = tested on: LOXL-1 in reconstructed skin specimens (Full Thickness Skin PHENION); test: LOXL-1 (lysyl oxydase like 1) synthesis in reconstructed skin specimens (immunolabeling); type: cell-based; conditions: TGF-β1 used as positive control
Method: LOXL synthesis was analyzed by preparations containing Tyr-Arg dipeptide in reconstructed skin specimens (Full Thickness Skin PHENION).
LOXL synthesis after application of the dipeptide was evaluated by an immunohistochemical analysis.
Preparations of Tyr-Arg dipeptide were applied to the surface of ? aged ? or not ? aged ? skins from the evening of D1 then every day. The skins were thereafter frozen for the immunohistochemical analysis.

[5] = tested on: transglutaminase activity in NHDF; test: Transglutaminase activity in NHDF (Dansyl Cadaverine substrate, fluorescence); type: cell-based, human; conditions: TGF-β1 10^−6%, vs control, n=6
Excerpt: NHDF were cultivated until confluence. The cells were exposed or not exposed to preparations containing or not Tyr-Arg dipeptide. The cell layers are then exposed to transglutaminase substrate (Dansyl Cadaverine, DC). The fluorescence obtained is proportional to transglutaminase activity. (n=6).

Substance: TGF-β1 [reference compound]
- % change in the elastin/tropoelastin synthesis [1]: +1127%; p < 0.01
- % change (elastin/tropoelastin, immunolabeling) [2]: +87%; p < 0.01
- % change of Fibrillin-1 synthesis (Fibrillin-1 by NHDF): +760%; p < 0.01
- % change/Control (fibulin-5 bands) [3]: +55% p < 0.01
- Mean intensity (UA) of the fibulin-5 bands ([3]; control 18.6 +/− 4.3): 28.8 +/− 8 UA
- Effect on synthesis of LOXL-1 (positive control) [4]: expected effect stimulating the synthesis of LOXL-1
- % change of the transglutaminase activity (AFU/10^6 cells) [5]: +26%; p < 0.01
